Data: the supplement of paper PMC12613149

Key:
[1] = collision cross section (TIMS, N2 drift gas) of the primary ion; higher = larger gas-phase ion size
[2] = reversed-phase LC retention time (C18, 15 min MeOH gradient); higher = more hydrophobic / later elution
[3] = ionization mode: ESI-, ion species: [M-H]-
[4] = ionization mode: ESI+, ion species: [M+H]+

Row | collision cross section [1, 3] | reversed-phase LC retention time [2, 3] | SMILES | collision cross section [1, 4] | reversed-phase LC retention time [2, 4]
1 | 159.45 Å² | 14.7 min | O=S(=O)(O)C(F)(F)C(F)(F)C(F)(F)C(F)(F)C(F)(F)C(F)(F)C(F)(F)F [Perfluoroheptanesulfonic acid] | – | –
2 | 152.3 Å² | 10.5 min | O=P(O)(O)C(F)(F)C(F)(F)C(F)(F)C(F)(F)C(F)(F)C(F)(F)F [Perfluorohexyl phosphonic acid] | – | –
3 | 141.48 Å² | 12.8 min | O=S(=O)(O)C(F)(F)C(F)(F)C(F)(F)C(F)(F)C(F)(F)F [Perfluoropentanesulfonic acid] | – | –
4 | 129.75 Å² | 10.9 min | O=C(O)C(F)(F)C(F)(F)C(F)(F)C(F)(F)F [Perfluoropentanoic acid] | – | –
5 | 209.23 Å² | 17.6 min | O=C(O)C(F)(F)C(F)(F)C(F)(F)C(F)(F)C(F)(F)C(F)(F)C(F)(F)C(F)(F)C(F)(F)C(F)(F)C(F)(F)C(F)(F)C(F)(F)F [Perfluorotetradecanoic acid] | – | –
6 | – | – | CCOCCN(C(=O)CCl)C(=C(C)C)c1ccccc1 [Pethoxamid] | 166.72 Å² | 14.9 min
7 | – | – | Cc1cc(=O)n(-c2ccccc2)n1C [Phenazone] | 138.2 Å² | 8.8 min
8 | 167.47 Å² | 8.23 min | O=S(=O)(O)c1ccc2[nH]c(-c3ccccc3)nc2c1 [Phenylbenzimidazole sulfonic acid] | 166.31 Å² | 7.17 min
9 | – | – | CCC(C(N)=O)(C(N)=O)c1ccccc1 [Phenylethylmalonamide] | 142.07 Å² | 7.73 min
10 | – | – | O=C1NC(=O)C(c2ccccc2)(c2ccccc2)N1 [Phenytoin] | 162.42 Å² | 11.9 min
11 | 163.45 Å² | 10.6 min | O=C(CCc1ccc(O)cc1)c1c(O)cc(O)cc1O [Phloretin] | 163.11 Å² | 11.9 min
12 | 186.89 Å² | 17.2 min | O=C(Nc1ccc(F)cc1)c1cccc(Oc2cccc(C(F)(F)F)c2)n1 [Picolinafen] | 189.81 Å² | 16.8 min
13 | – | – | CO/C=C(/C(=O)OC)c1ccccc1COc1cccc(C(F)(F)F)n1 [Picoxystrobin] | 174.95 Å² | 15.2 min
14 | – | – | CC(C)NCC(O)COc1cccc2[nH]ccc12 (configuration not stated) [Pindolol] | 159 Å² | 7.36 min
15 | 176.43 Å² | 13.3 min | CCc1ccc(CCOc2ccc(CC3SC(=O)NC3=O)cc2)nc1 (configuration not stated) [Pioglitazone] | 179.07 Å² | 11.1 min
16 | – | – | NC(=O)C1(N2CCCCC2)CCN(CCCC(=O)c2ccc(F)cc2)CC1 [Pipamperone] | 194.74 Å² | 9.13 min
17 | – | – | O=C(/C=C/C=C/c1ccc2c(c1)OCO2)N1CCCCC1 [Piperine] | 177.09 Å² | 14.6 min
18 | – | – | Cc1nc(N(C)C)nc(OC(=O)N(C)C)c1C [Pirimicarb] | 156.34 Å² | 10.5 min
19 | – | – | CCN(CC)c1nc(C)cc(OP(=S)(OC)OC)n1 [Pirimiphos-methyl] | 167.52 Å² | 15.7 min
20 | 203.46 Å² | 12.1 min | CCC(C)C(=O)OC1CC(O)C=C2C=CC(C)C(CCC(O)CC(O)CC(=O)O)C21 (configuration not stated) [Pravastatin] | – | –
21 | 182.17 Å² | 11.9 min | C[C@]12C=CC(=O)C=C1CC[C@@H]1[C@@H]2[C@@H](O)C[C@@]2(C)[C@H]1CC[C@]2(O)C(=O)CO [Prednisolone] | – | –
22 | 184 Å² | 15.2 min | C[C@]12C=CC(=O)C=C1CC[C@@H]1[C@@H]2C(=O)C[C@@]2(C)[C@H]1CC[C@]2(O)C(=O)CO [Prednisone] | 185.97 Å² | 11.9 min
23 | – | – | CCC1(c2ccccc2)C(=O)NCNC1=O [Primidone] | 148.13 Å² | 9.29 min
24 | – | – | CCCN(CCOc1c(Cl)cc(Cl)cc1Cl)C(=O)n1ccnc1 [Prochloraz] | 183.61 Å² | 15.7 min

Row | collision cross section [1, 3] | reversed-phase LC retention time [2, 3] | SMILES | collision cross section [1, 4] | reversed-phase LC retention time [2, 4]
25 | – | – | CCCSP(=O)(OCC)Oc1ccc(Br)cc1Cl (configuration not stated) [Profenofos] | 169.17 Å² | 16.6 min
26 | – | – | CC(CN1c2ccccc2Sc2ccccc21)N(C)C (configuration not stated) [Promethazin] | 164.06 Å² | 12.3 min
27 | – | – | CC(C)N(C(=O)CCl)c1ccccc1 [Propachlor] | 143.81 Å² | 13 min
28 | – | – | CCCOC(=O)NCCCN(C)C [Propamocarb] | 142.68 Å² | 6.24 min
29 | – | – | CC(C)NCC(O)COc1cccc2ccccc12 (configuration not stated) [Propanolol] | 162.88 Å² | 11.3 min
30 | – | – | C#CCOS(=O)OC1CCCCC1Oc1ccc(C(C)(C)C)cc1 (configuration not stated) [Propargite] | 195.16 Å² | 17.4 min
31 | – | – | CCCC1COC(Cn2cncn2)(c2ccc(Cl)cc2Cl)O1 (configuration not stated) [Propiconazole] | 179.72 Å² | 15.7 min
32 | 140.81 Å² | 12.9 min | CCCOC(=O)c1ccc(O)cc1 [Propylparaben] | – | –
33 | – | – | Cc1c(C(C)C)c(=O)n(-c2ccccc2)n1C [Propyphenazone] | 153.65 Å² | 12.3 min
34 | – | – | C#CC(C)(C)NC(=O)c1cc(Cl)cc(Cl)c1 [Propyzamide] | 158.35 Å² | 14.2 min
35 | – | – | CCCN(CCC)C(=O)SCc1ccccc1 [Prosulfocarb] | 158.12 Å² | 16.4 min
36 | – | – | OC(Cc1ccccc1Cl)(Cn1cncn1)C1(Cl)CC1 (configuration not stated) [Prothioconazole-desthio] | 168.06 Å² | 14.9 min
37 | – | – | CC1=NNC(=O)N(/N=C/c2cccnc2)C1 [Pymetrozine] | 153.68 Å² | 5.8 min
38 | – | – | COC(=O)N(OC)c1ccccc1COc1ccn(-c2ccc(Cl)cc2)n1 [Pyraclostrobin] | 184.99 Å² | 15.8 min
39 | – | – | CCOC(=O)c1cn2nc(OP(=S)(OCC)OCC)cc2nc1C [Pyrazophos] | 187.33 Å² | 15.8 min
40 | – | – | CC(C)(C)c1ccc(CSc2cnn(C(C)(C)C)c(=O)c2Cl)cc1 [Pyridaben] | 193.46 Å² | 17.9 min
41 | – | – | CC(COc1ccc(Oc2ccccc2)cc1)Oc1ccccn1 (configuration not stated) [Pyriproxyfen] | 184.89 Å² | 16.9 min
42 | – | – | Cc1cnc2c(C(=O)O)c(Cl)ccc2c1 [Quinmerac] | 139.87 Å² | 9.27 min
43 | – | – | [O-][n+]1cccc2ccccc21 [Quinoline N-oxide] | 124.14 Å² | 7.48 min
44 | – | – | c1ccc2ncccc2c1 [Quinoline] | 118.24 Å² | 9.66 min
45 | – | – | Fc1ccc(Oc2ccnc3cc(Cl)cc(Cl)c23)cc1 [Quinoxyfen] | 164.99 Å² | 17.1 min
46 | 213.83 Å² | 15.4 min | O=C(c1ccc(OCCN2CCCCC2)cc1)c1c(-c2ccc(O)cc2)sc2cc(O)ccc12 [Raloxifene] | 216.23 Å² | 11.3 min
47 | 181.06 Å² | 10.1 min | CN/C(=C\[N+](=O)[O-])NCCSCc1ccc(CN(C)C)o1 [Ranitidine] | 168.6 Å² | 6.09 min

Row | SMILES | collision cross section [1, 3] | reversed-phase LC retention time [2, 3] | collision cross section [1, 4] | reversed-phase LC retention time [2, 4]
48 | O=C(O)C(F)(F)C(F)(F)C(F)(F)C(F)(F)C(F)(F)C(F)(F)F [Perfluoroheptanoic acid] | 146.98 Å² | 13.8 min | – | –
49 | O=S(=O)(O)C(F)(F)C(F)(F)C(F)(F)C(F)(F)C(F)(F)C(F)(F)F [Perfluorohexanesulfonic acid] | 150.32 Å² | 13.9 min | – | –
50 | O=C(O)C(F)(F)C(F)(F)C(F)(F)C(F)(F)C(F)(F)F [Perfluorohexanoic acid] | 138.14 Å² | 12.6 min | – | –
51 | O=C(O)C(F)(F)C(F)(F)C(F)(F)C(F)(F)C(F)(F)C(F)(F)C(F)(F)C(F)(F)F [Perfluorononanoic acid] | 164.37 Å² | 15.4 min | – | –
52 | NS(=O)(=O)C(F)(F)C(F)(F)C(F)(F)C(F)(F)C(F)(F)C(F)(F)C(F)(F)C(F)(F)F [Perfluorooctanesulfonamide] | 169.81 Å² | 15.7 min | – | –
53 | O=S(=O)(O)C(F)(F)C(F)(F)C(F)(F)C(F)(F)C(F)(F)C(F)(F)C(F)(F)C(F)(F)F [Perfluorooctanesulfonic acid] | 169.04 Å² | 15.4 min | – | –
54 | O=C(O)C(F)(F)C(F)(F)C(F)(F)C(F)(F)C(F)(F)C(F)(F)C(F)(F)F [Perfluorooctanoic acid] | 155.67 Å² | 14.7 min | – | –
55 | O=C(O)C(F)(F)C(F)(F)C(F)(F)C(F)(F)C(F)(F)C(F)(F)C(=O)O [Perfluorosuberic acid] | 143.37 Å² | 6.68 min | – | –
56 | O=C(O)C(F)(F)C(F)(F)C(F)(F)C(F)(F)C(F)(F)C(F)(F)C(F)(F)C(F)(F)C(F)(F)C(F)(F)F [Perfluoroundecanoic acid] | 182.71 Å² | 16.5 min | – | –
57 | CC12CC1(C)C(=O)N(c1cc(Cl)cc(Cl)c1)C2=O (configuration not stated) [Procymidone] | 172.16 Å² | 15 min | – | –
58 | CCC(=O)Nc1ccc(Cl)c(Cl)c1 [Propanil] | 141.22 Å² | 14.1 min | 146.71 Å² | 13.8 min
59 | CCCOc1nn(C(=O)NS(=O)(=O)c2ccccc2C(=O)OC)c(=O)n1C [Propoxycarbazone] | 193.45 Å² | 9.86 min | 199.32 Å² | 11.7 min
60 | COc1nc(C)nc(NC(=O)NS(=O)(=O)c2ccccc2CCC(F)(F)F)n1 [Prosulfuron] | 189.48 Å² | 11.9 min | 188.2 Å² | 13.9 min
61 | CC(Oc1ccc(Oc2cnc3cc(Cl)ccc3n2)cc1)C(=O)O (configuration not stated) [Quizalofop] | 192.68 Å² | 13.5 min | – | –
